This note sets out measurements from doi:10.1101/2022.08.09.503277v2 (biorxiv, 2022).

In general, Kd refers to the concentration at which binding is half-saturated. Low readings indicate tighter binding, high ones weaker binding.

In this assay the target is ECD-AT1G56145 (IGP1) (Arabidopsis thaliana, UniProt F4I3K3). Description: isothermal titration calorimetry. The note with it: 20 mM sodium citrate pH 5.0, 150 mM NaCl, 25 °C; single site, N fixed to 1. It is filed as binding. A general note: Isothermal titration calorimetry measures the heat released or taken up as one component is titrated into another.

`OC[C@H]1O[C@@H](O[C@H]2[C@H](O)[C@@H](O)[C@H](O[C@H]3[C@H](O)[C@@H](O)C(O)O[C@@H]3CO)O[C@@H]2CO)[C@H](O)[C@@H](O)[C@@H]1O` (some centres unmarked) [CEL3] came in with a Kd of 1190 ± 30 nM.
Turning to `OC[C@H]1O[C@@H](O[C@H]2[C@H](O)[C@@H](O)[C@H](O[C@H]3[C@H](O)[C@@H](O)[C@H](O[C@H]4[C@H](O)[C@@H](O)[C@H](O[C@H]5[C@H](O)[C@@H](O)C(O)O[C@@H]5CO)O[C@@H]4CO)O[C@@H]3CO)O[C@@H]2CO)[C@H](O)[C@@H](O)[C@@H]1O` (some centres unmarked) [CEL5], the Kd was 1400 ± 10 nM.
